From ChEMBL document CHEMBL3507680, “University of Dundee, Gates Library screen for HepG2 cell viability”

Experiment: Human HepG2 cell viability assay in 384 well format
Format: toxicity, cell-based
Design: dose 125 nL, time 70.5 hour; concentration not given beside the values
Settings: HepG2 cells, read-out: Inhibition

| SMILES | cytotoxicity at 70.5 h [%] |
| --- | --- |
| CCc1ccc(-n2nnc(C(=O)O)c2-c2ccncc2)cc1 | -4.02 |
| CCc1ccc(C(O)CN2CCN(c3cccc(OC)c3)CC2)cc1 (stereo not given) | -29.4 |
| O=C(O)c1nnn(-c2cc(F)cc(F)c2)c1-c1ccncc1 | 8.43 |
| O=C(O)c1nnn(-c2ccc(C(F)(F)F)cc2)c1-c1ccncc1 | -26.2 |
| CC(C)OCCCNC(=O)CC1(Cn2cnnn2)CCCCC1 | -8.88 |
| O=C(Cn1ccc2ccc(F)cc21)NCc1ccc(C(=O)O)cc1 | 18 |
| O=C(COc1coc(CN2CCCCC2)cc1=O)c1ccc(Cl)cc1 | -23.2 |
| CC(C)CCNc1c(C#N)c2c(c3nncn13)CN(C)CC2 | -3.96 |
| CN1CCc2c(C#N)c(NCc3ccccc3)n3cnnc3c2C1 | 17.9 |
| CN1CCc2c(C#N)c(NCCN3CCOCC3)n3cnnc3c2C1 | -3.13 |
| O=C(O)C1CCCN(C(=O)CCn2ccc3c(Br)cccc32)C1 (stereo not given) | -12.2 |
| O=C(CCn1ccc2ccc(Cl)cc21)NCc1ccc(C(=O)O)cc1 | -0.8 |
| Cc1cccc(C(=O)Oc2cc(=O)n3cccc(C)c3n2)c1 | -5.1 |
| CCOc1ccccc1C(=O)Oc1cc(=O)n2cccc(C)c2n1 | -21.9 |
| Cc1cc(=O)n(CC(=O)NC(C)C)c(Nc2ccc(F)c(C)c2)n1 | 23.2 |
| CCC(C)NC(=O)Cn1c(Nc2cc(C)cc(C)c2)nc(C)cc1=O (stereo not given) | 0.214 |
| CC/N=c1\nc(NCC)nc2n1C(O)(Nc1cc(Cl)ccc1Cl)CS2 (stereo not given) | 17.8 |
| Cc1cc(C)cc(Nc2nc(C)cc(=O)n2CC(=O)NC(C)C)c1 | -5.12 |
| COCCNC(=O)Cn1c(-c2cccc(F)c2)nc(C)c(CCO)c1=O | -7.96 |
| O=c1[nH]nc2c(S(=O)(=O)N3CCN(c4ccc(F)cc4)CC3)cccn12 | 20.6 |
| N#Cc1cnc2ccccc2c1N1CCC(C(=O)O)CC1 | -4.5 |
| O=C(O)c1nc(SCc2ccc(F)cc2)ncc1Br | -7.86 |

| SMILES | cytotoxicity at 70.5 h [%] |
| --- | --- |
| c1ccc(-c2nnc3sc(CCN4CCCC4)nn23)cc1 | -5.25 |
| CCOC(=O)C1CCN(C(=O)c2cc(F)ccc2-n2cnnn2)CC1 | 3.28 |
| NC(=O)C1CCN(C(=O)c2cc(Br)ccc2-n2cnnn2)CC1 | 27.7 |
| CSc1nc2ncc3c(=O)n(CCN4CCCCC4)ccc3n2n1 | -4.31 |
| COC(=O)C(NC(=O)Nc1ccc(C(C)=O)cc1)C(C)C (stereo not given) | -5.76 |
| COC(=O)Cn1nc(-c2ccccc2F)ccc1=O | 19.4 |
| CC(=O)Cn1nc(-c2ccccc2F)ccc1=O | -3.88 |
| CCN(CC)Cc1nnc2sc(-c3cc(C(C)C)[nH]n3)nn12 | -8.88 |
| NC(=O)c1c(NC(=O)CCC(=O)O)sc2c1CCc1ccccc1-2 | -9.16 |
| NC(=O)c1c(NC(=O)CCCC(=O)O)sc2c1CCc1ccccc1-2 | 10.4 |
| Cc1cccc(CSc2ncc(Cl)c(C(=O)O)n2)c1 | -11 |
| O=C(O)c1nc(SCc2ccccc2)ncc1Br | -8.29 |
| CCOc1cc(CNCCCn2ccnc2)cc(Cl)c1OCC | 19.9 |
| COc1ccc(Cl)cc1CNCCCn1ccnc1 | -2.31 |
| Cc1c(CNS(=O)(=O)c2cccc(COC(C)C)c2)cnn1C | -5.71 |
| CCn1nc(C)c2nnn(CC(=O)Nc3ccccc3)c(=O)c21 | -10.7 |
| CC(C)CN1Cc2nc(N3CCC(O)CC3)ncc2C1=O | 12.9 |
| COc1c(Br)c(C(=O)NC2CCCCC2)nn1C | -15 |
| Cn1ncc(C(=O)N2CCN(S(C)(=O)=O)CC2)c1Cl | 20.9 |
| CC(C)S(=O)(=O)N1CCN(C(=O)c2cnn(C)c2Cl)CC1 | -12.2 |
| Cc1nn(C)c(C)c1NC(=O)CCn1ncc2ccc(Cl)cc21 | -11.9 |
| CCn1nc(C)c2nnn(CC(=O)Nc3ccccc3F)c(=O)c21 | -4.52 |

| SMILES | cytotoxicity at 70.5 h [%] |
| --- | --- |
| CCn1nc(C)c2nnn(CC(=O)Nc3cccc(F)c3)c(=O)c21 | -5.5 |
| CCC(=O)Nc1nnc(CCOc2ccccc2)s1 | -2.19 |
| CCC(=O)Nc1nnc(CCOc2ccccc2OC)s1 | -11.7 |
| COCc1nc(N(C)C)ncc1C(=O)Nc1ccc(Cl)cc1 | -11.1 |
| CCn1cc(NC(=O)CN2C(=O)CC(C)(C)c3ccccc32)cn1 | -4.43 |
| Cc1cc(NC(=O)CN2C(=O)CC(C)(C)c3ccccc32)no1 | -3 |
| CCOCCCNC(=O)c1nnn(Cc2ccccc2)c1OC | -4.93 |
| O=C(Nc1cc(-c2cccnc2)no1)C1CCCCC1 | -4.13 |
| CNC(=O)c1cc(-c2ccccc2)nc2ncnn12 | 7.79 |
| COCCNC(=O)c1cc(C(C)C)nc(N2CCCCC2)n1 | -9.32 |
| CCN1CCN(C(=O)C2CC(=O)N(c3cnn(C(C)C)c3)C2)CC1 (stereo not given) | -1.53 |
| CC(C)n1cc(N2CC(C(=O)N3CCc4ccccc4C3)CC2=O)cn1 (stereo not given) | 26.3 |
| NCc1n[nH]c(-c2cccc(F)c2)n1 | 32.2 |
| COc1cc(-c2n[nH]c(CCN)n2)cc(OC)c1OC | 22.8 |
| OCc1n[nH]c(-c2ccc(F)cc2)n1 | -13.2 |
| Cc1ccc2c(c1)c(C)cc(=O)n2CCC#N | 0.982 |
| CC(C)c1cc(C(=O)NCCCN(C)C)nc(N2CCCC2)n1 | -8.44 |
| CCn1nc(C)c2nc(C(C)C)nc(NCCOC)c21 | -5.06 |
| COc1cc2cc(C(=O)N[C@@H](C)C(=O)O)n(C)c2c(OC)c1OC | -4.88 |
| O=C(Cn1cc(I)cn1)N1CCCC1 | -3.36 |
| CC(C)NC(=O)c1n[nH]c(-n2cnnc2)n1 | -0.175 |
| Cc1nc(N2CCN(C(=O)c3ccccc3)CC2)c2c(n1)c(C)nn2C | -2.09 |

| SMILES | cytotoxicity at 70.5 h [%] |
| --- | --- |
| CCn1cc(N2Cc3nc(N4CCN(C)CC4)ncc3C2=O)cn1 | -7.74 |
| CCn1nc(C)c2nnn(CC(=O)Nc3cccc(Cl)c3)c(=O)c21 | -5.39 |
| Cc1nn(C)c2c(=O)n(CC(=O)Nc3cc(Cl)cc(Cl)c3)nnc12 | -0.624 |
| CCOCc1cccc(S(=O)(=O)N2CCSCC2)c1 | -3.6 |
| Cc1ncc(CNC(=O)c2nn(C)c3c2CS(=O)(=O)CC3)s1 | -5.86 |
| CCc1noc(C2CCCCN2C(=O)c2ccoc2C)n1 (stereo not given) | 9.18 |
| COCCCNC(=O)CCn1nc(C)c2ccccc21 | -2.16 |
| Cc1nc(N2CCCC2)ncc1-c1cc(O)nc(N2CCCC2)n1 | -11.7 |
| CCN(CC)C(=O)CCn1ncc2c(Cl)cccc21 | -10.4 |
| COCc1nc(N(C)C)ncc1C(=O)NC(C)C | 12.7 |
| CCN(CC)C(=O)c1ccn(COc2ccccc2)n1 | -7.93 |
| Cc1ccc2cnn(CCC(=O)Nc3c(C)nn(C)c3C)c2c1 | -6.3 |
| Cc1nn(C)c(C)c1NC(=O)CCn1ncc2c(C)cccc21 | -5.31 |
| CC(C(=O)N1CCc2ccccc2C1)n1cc(Br)cn1 (stereo not given) | -13.3 |
| Cc1cccc2c1cnn2CCCNC(=O)CCCC(=O)O | -4.18 |
| CCS(=O)(=O)Nc1ccn(Cc2cccc(Cl)c2)n1 | -4.96 |
| CN1CCc2c(C#N)c(NCc3cccnc3)n3cnnc3c2C1 | -27 |
| CCOc1ccc(Br)cc1-c1cc(N)[nH]n1 | -6.54 |
| O=C(CN(C1=NCCCC1)c1ccccc1)c1ccc2c(c1)OCCO2 | -16.3 |
